# According to US12274689B2, “Compound for the management of feline diabetes” (INCREVET, INC., priority 2019, dated 2025):
# Marks after values point to notes of the source that are not given here.
# Assays:
# [1] = system: healthy purpose-bred cats; experiment: urinary glucose excretion in healthy cats after capsule dosing (studies 1 and 2); format: in vivo, cat
# ZDF rats = experiment: plasma glucose in male Zucker Diabetic Fatty rats, daily oral dosing (study 338); format: in vivo; conditions: for plasma glucose levels / plasma glucose levels, Day 21 Δ: male ZDF rats; for plasma glucose levels, Day 21 Δ: change Day 0 to Day 21
# db/db mice = experiment: non-fasting blood glucose in db/db mice, 28-day oral dosing (study 350); format: in vivo; conditions: for non-fasting blood glucose concentration: n = 8
smiles,measurement,setting,value
"OC[C@H]1O[C@@H](c2ccc(Cl)c(Cc3ccc(OCCOC4CC4)cc3)c2)[C@H](O)[C@@H](O)[C@@H]1O [bexagliflozin, (2S,3R,4R,5S,6R)-2-(4-chloro-3-(4-(2-cyclopropoxyethoxy)benzyl)phenyl)-6-(hydroxymethyl)tetrahydro-2H-pyran-3,4,5-triol]","doses with undesired effects attributed to SGLT1 inhibition, multiple of doses producing the maximum pharmacodynamic effect",[1]; healthy cats,5 to 10 times
same,loose stools and/or diarrhea,[1]; healthy cats exposed to the higher quantities,dose-dependent increase in the severity of loose stools and/or diarrhea
same,dose at which the maximum glucosuria was observed,"[1]; healthy cats, gelatin capsules, urinary glucose excretion over 24 h after dosing",approximately 3 mg kg^−1
same,change in plasma glucose levels,"ZDF rats; ZDF rats, after 7 days, 0.067 mg kg^−1",+2.8%
same,change in plasma glucose levels,"ZDF rats; ZDF rats, after 7 days, 0.2 mg kg^−1",−16.8%
same,change in plasma glucose levels,"ZDF rats; ZDF rats, after 7 days, 0.67 mg kg^−1",−17.1%
same,change in plasma glucose levels,"ZDF rats; ZDF rats, after 7 days, 2.0 mg kg^−1",−25.3%
same,change in plasma glucose levels,"ZDF rats; ZDF rats, after 14 days, 0.067 mg kg^−1",+9.5%
same,change in plasma glucose levels,"ZDF rats; ZDF rats, after 14 days, 0.2 mg kg^−1",−5.6%
same,change in plasma glucose levels,"ZDF rats; ZDF rats, after 14 days, 0.67 mg kg^−1",−8.1%
same,change in plasma glucose levels,"ZDF rats; ZDF rats, after 14 days, 2.0 mg kg^−1",−25.1%
same,change in plasma glucose levels,"ZDF rats; ZDF rats, after 21 days, 0.067 mg kg^−1",+15.5%
same,change in plasma glucose levels,"ZDF rats; ZDF rats, after 21 days, 0.2 mg kg^−1",+4.3%
same,change in plasma glucose levels,"ZDF rats; ZDF rats, after 21 days, 0.67 mg kg^−1",+1.5%
same,change in plasma glucose levels,"ZDF rats; ZDF rats, after 21 days, 2.0 mg kg^−1",−15.4%
same,"blood glucose, level below which it was not reduced","ZDF rats; ZDF rats, sole agent, any dose group",≥ 287 mg/dL
same,plasma glucose levels,"ZDF rats; 0.067 mg kg^−1 oral once daily, Day 0",373.2 ± 29.5 mg/dL
same,plasma glucose levels,"ZDF rats; 0.067 mg kg^−1 oral once daily, Day 7",383.7 ± 33.1 mg/dL
same,plasma glucose levels,"ZDF rats; 0.067 mg kg^−1 oral once daily, Day 14",408.6 ± 19.6 mg/dL
same,plasma glucose levels,"ZDF rats; 0.067 mg kg^−1 oral once daily, Day 21",431.0 ± 19.7 mg/dL
same,"plasma glucose levels, Day 21 Δ",ZDF rats; 0.067 mg kg^−1 oral once daily,+57.8 ± 41.7 mg dL^−1
same,plasma glucose levels,"ZDF rats; 0.2 mg kg^−1 oral once daily, Day 0",386.6 ± 28.2 mg/dL
same,plasma glucose levels,"ZDF rats; 0.2 mg kg^−1 oral once daily, Day 7",321.8 ± 19.5 mg/dL
same,plasma glucose levels,"ZDF rats; 0.2 mg kg^−1 oral once daily, Day 14",364.9 ± 13.1 mg/dL
same,plasma glucose levels,"ZDF rats; 0.2 mg kg^−1 oral once daily, Day 21",403.2 ± 20.1 mg/dL
same,"plasma glucose levels, Day 21 Δ",ZDF rats; 0.2 mg kg^−1 oral once daily,+16.6 ± 36.6 mg dL^−1
same,plasma glucose levels,"ZDF rats; 0.67 mg kg^−1 oral once daily, Day 0, n = 10",384.4 ± 27.5 mg/dL
same,plasma glucose levels,"ZDF rats; 0.67 mg kg^−1 oral once daily, Day 7",318.7 ± 32.0 mg/dL
same,plasma glucose levels,"ZDF rats; 0.67 mg kg^−1 oral once daily, Day 14",353.4 ± 18.9 mg/dL
same,plasma glucose levels,"ZDF rats; 0.67 mg kg^−1 oral once daily, Day 21, n = 9",374.2 ± 37.3 mg/dL
same,"plasma glucose levels, Day 21 Δ","ZDF rats; 0.67 mg kg^−1 oral once daily, n = 9",+5.4 ± 30.8^b mg dL^−1
same,plasma glucose levels,"ZDF rats; 2 mg kg^−1 oral once daily, Day 0",384.8 ± 16.5 mg/dL
same,plasma glucose levels,"ZDF rats; 2 mg kg^−1 oral once daily, Day 7",287.4 ± 27.4 mg/dL
same,plasma glucose levels,"ZDF rats; 2 mg kg^−1 oral once daily, Day 14",288.3 ± 17.1 mg/dL
same,plasma glucose levels,"ZDF rats; 2 mg kg^−1 oral once daily, Day 21",325.4 ± 13.0 mg/dL
same,"plasma glucose levels, Day 21 Δ",ZDF rats; 2 mg kg^−1 oral once daily,-59.4 ± 22.4 mg/dL
same,non-fasting blood glucose concentration,"db/db mice; 0.067 mg kg^−1 oral once a day, Day 0, mean ± SD",565.5 ± 75.9 mg/dL
same,non-fasting blood glucose concentration,"db/db mice; 0.067 mg kg^−1 oral once a day, Day 1, 6 h post-dose, mean ± SD",526.0 ± 97.0 mg/dL
same,non-fasting blood glucose concentration,"db/db mice; 0.067 mg kg^−1 oral once a day, Day 7, 6 h post-dose, mean ± SD",459.5 ± 69.9 mg/dL
same,non-fasting blood glucose concentration,"db/db mice; 0.067 mg kg^−1 oral once a day, Day 14, 6 h post-dose, mean ± SD",441.7 ± 119.6 mg/dL
same,non-fasting blood glucose concentration,"db/db mice; 0.067 mg kg^−1 oral once a day, Day 21, 6 h post-dose, mean ± SD",497.5 ± 98.8 mg/dL
same,non-fasting blood glucose concentration,"db/db mice; 0.067 mg kg^−1 oral once a day, Day 28, 6 h post-dose, mean ± SD",472.1 ± 113.3 mg/dL
same,non-fasting blood glucose concentration,"db/db mice; 0.067 mg kg^−1 oral once a day, Day −3, mean ± SD",563.6 ± 105.2 mg/dL
same,non-fasting blood glucose concentration,"db/db mice; 0.2 mg kg^−1 oral once a day, Day 0, mean ± SD",590.0 ± 92.9 mg/dL
same,non-fasting blood glucose concentration,"db/db mice; 0.2 mg kg^−1 oral once a day, Day 1, 6 h post-dose, mean ± SD",411.3 ± 86.8 mg/dL
same,non-fasting blood glucose concentration,"db/db mice; 0.2 mg kg^−1 oral once a day, Day 7, 6 h post-dose, mean ± SD",390.8 ± 92.3 mg/dL
same,non-fasting blood glucose concentration,"db/db mice; 0.2 mg kg^−1 oral once a day, Day 14, 6 h post-dose, mean ± SD",364.7 ± 121.6 mg/dL
same,non-fasting blood glucose concentration,"db/db mice; 0.2 mg kg^−1 oral once a day, Day 21, 6 h post-dose, mean ± SD",379.8 ± 47.4 mg/dL
same,non-fasting blood glucose concentration,"db/db mice; 0.2 mg kg^−1 oral once a day, Day 28, 6 h post-dose, mean ± SD",333.5 ± 79.9 mg/dL
same,non-fasting blood glucose concentration,"db/db mice; 0.2 mg kg^−1 oral once a day, Day −3, mean ± SD",546.9 ± 92.8 mg/dL
same,non-fasting blood glucose concentration,"db/db mice; 0.67 mg kg^−1 oral once a day, Day 0, mean ± SD",574.4 ± 90.5 mg/dL
same,non-fasting blood glucose concentration,"db/db mice; 0.67 mg kg^−1 oral once a day, Day 1, 6 h post-dose, mean ± SD",404.3 ± 86.4 mg/dL
same,non-fasting blood glucose concentration,"db/db mice; 0.67 mg kg^−1 oral once a day, Day 7, 6 h post-dose, mean ± SD",370.1 ± 96.5 mg/dL
same,non-fasting blood glucose concentration,"db/db mice; 0.67 mg kg^−1 oral once a day, Day 14, 6 h post-dose, mean ± SD",379.6 ± 58.6 mg/dL
same,non-fasting blood glucose concentration,"db/db mice; 0.67 mg kg^−1 oral once a day, Day 21, 6 h post-dose, mean ± SD",300.6 ± 97.6 mg/dL
same,non-fasting blood glucose concentration,"db/db mice; 0.67 mg kg^−1 oral once a day, Day 28, 6 h post-dose, mean ± SD",306.7 ± 98.4 mg/dL
same,non-fasting blood glucose concentration,"db/db mice; 0.67 mg kg^−1 oral once a day, Day −3, mean ± SD",565.5 ± 87.5 mg/dL
same,non-fasting blood glucose concentration,"db/db mice; 2 mg kg^−1 oral once a day, Day 0, mean ± SD",541.6 ± 84.4 mg/dL
same,non-fasting blood glucose concentration,"db/db mice; 2 mg kg^−1 oral once a day, Day 1, 6 h post-dose, mean ± SD",382.7 ± 111.9 mg/dL
same,non-fasting blood glucose concentration,"db/db mice; 2 mg kg^−1 oral once a day, Day 7, 6 h post-dose, mean ± SD",330.8 ± 101.1 mg/dL
same,non-fasting blood glucose concentration,"db/db mice; 2 mg kg^−1 oral once a day, Day 14, 6 h post-dose, mean ± SD",303.5 ± 74.0 mg/dL
same,non-fasting blood glucose concentration,"db/db mice; 2 mg kg^−1 oral once a day, Day 21, 6 h post-dose, mean ± SD",319.7 ± 74.2 mg/dL
same,non-fasting blood glucose concentration,"db/db mice; 2 mg kg^−1 oral once a day, Day 28, 6 h post-dose, mean ± SD",315.2 ± 81.3 mg/dL
same,non-fasting blood glucose concentration,"db/db mice; 2 mg kg^−1 oral once a day, Day −3, mean ± SD",603.9 ± 88.9 mg/dL
same,"blood glucose values, % of control",db/db mice; 28-day administration of 0.067 mg kg^−1,79.74%
same,"blood glucose values, % of control",db/db mice; 28-day administration of 0.2 mg kg^−1,56.33%
same,"blood glucose values, % of control",db/db mice; 28-day administration of 0.67 mg kg^−1,51.81%
same,"blood glucose values, % of control",db/db mice; 28-day administration of 2 mg kg^−1,53.25%
same,"blood glucose, level below which it was not reduced","db/db mice; sole agent, any dose group",≥ 300 mg/dL
